Measured values from US9498546B2, “Synthesis and application of novel imaging agents conjugated to DPA 713 analogs for imaging inflammation” (THE JOHNS HOPKINS UNIVERSITY, priority 2012, dated 2016).
“Also recorded” adds a separate entry of the source.

Key:
[1] = tested on: CD68+ macrophages in MDA-MB-231 xenografts; experiment: Ex vivo fluorescence microscopy of MDA-MB-231 xenografts; format: in vivo, mice; conditions: 24 hours post-injection
Description: FIG. 6 is a series of photomicrographs of ex vivo fluorescence microscopy of DPA-713-IRDye680LT in MDA-MB-231 xenografts at 24 hours post-injection.
Ex vivo DPA-713-IRDye680LT microscopy. The mice used in the in vivo NIRF studies (PC-3 analog xenografts and MDA-MB-231 analog xenografts) were sacrificed at the end of their studies and their tumors were collected and frozen on dry ice for cryosectioning to 20 microns on charged glass slides (VWR). The sections were then probed with both anti-TSPO Ab (Novus Biologicals NBP1-45769, 1:70) labeled directly with Lissamine sulfonyl chloride (Aldrich) according to the known method and anti-CD68 Ab (Abcam ab53444, 1:40) and lastly with Hoechst 33342 (Invitrogen, 1 ng/mL). Both antibodies were added simultaneously in a 10% FBS in PBS solution applied directly to the freshly thawed sections and allowed to sit at room temperature for 1 hour. The sections were washed twice at room temperature for 5 minutes each with PBS prior to the addition of sheep-anti-rat-FITC (Abcam ab6848-1, 1:250) in PBS at room temperature for 30 minutes. The secondary antibody solution was removed and the slides were bathed in Hoechst solution (PBS) for 1.5 minutes at room temperature before being washed twice as before with PBS. […] All images are recorded and processed using Nikon Imaging Software Elements. […]

[2] = tested on: LPS-stimulated J774 macrophages (TSPO); experiment: In vitro J774 murine macrophage uptake studies (fluorescence microscopy, with or without blocking); format: cell-based
Description: FIG. 4 is a series of photomicrographs (A-I) of J774 macrophages that were cultured in 8 well chamber slides to 80% confluence. LPS was then added to each well for 24 hours to stimulate the cells. […] The cells were returned to the incubator for either 1 hour or 24 hours. The solutions were then removed, the nuclei were labeled with Hoechst 33342 and the cells were briefly washed before mounting and viewing under a fluorescence microscope.
In vitro J774 murine macrophage uptake studies. The immortalized J774 murine macrophage-like cell line was cultured in RPMI1640+20% FBS+1% penicillin+ streptomycin media in 8-well chamber slides (Fisher Scientific) to approximately 80% confluence. The cells were then stimulated with 1 ng/mL of LPS (Sigma, E. coli 055:B5) for 24 hours prior to addition of the probes of the present invention to 40 nM final concentration. […] The cells were exposed to the fluorescent probes and blocking compounds for either 1 hour or 24 hours prior to exposing to 1 ng/mL of Hoechst 33342 dye (Invitrogen), followed by washing twice briefly with PBS, pH 7.5. The chambers were then removed and the slide mounted with Dako Cytomation aqueous mounting media and a glass coverslip. The cells were visualized using a Nikon 80i upright epifluorescence microscope equipped with a Nikon DS-QilMc darkfield CCD camera and processed using Nikon Image Software on an adjacent workstation. The dyes were excited using either a Nikon Intensilight C-HGFI lamp (IRDye680 and Hoechst) or a Sutter Instruments Co. (Novato, Calif.) LB/LB-30 xenon lamp (IRDye800).
J774 Cell Uptake Studies. J774 macrophages were cultured in 8 well chamber slides to 80% confluence. LPS was then added to each well for 24 hours to stimulate the cells. […] The cells were returned to the incubator for either 1 hour or 24 hours. The solutions were then removed, the nuclei were labeled with Hoechst 33342 and the cells were briefly washed before mounting and viewing under a fluorescence microscope. […] The tracer localization for both analogs is perinuclear and granular in appearance and is consistent with the gross distribution pattern of TSPO expression in other mononuclear cell-derived lines.

[3] = tested on: TSPO+ PC-3 PIP and PC-3 flu prostate xenografts; experiment: In vivo NIRF imaging in PC-3 PIP and PC-3 flu xenograft bearing mice; design: species or system athymic nude mice; conditions: for Distribution of fluorescent signal, tracer only: 8 nmol intraperitoneally
Description: (§1) FIG. 7 depicts imaging of athymic nude mice bearing two subcutaneous xenografts each consisting of one PC-3 PIP (PSMA+ stable transfected, macrophage and vasculature enriched) and PC-3 flu (PC-3 transfected with empty vector) were injected intraperitoneally with 8 nmol of DPA-713-IRDye680LT when the tumors reached 4-8 mm in diameter. […] The mice were imaged in vivo at 1 hour post-injection and again at 24 hours post-injection.
Prostate lines PC-3 PIP (PSMA stable transfected) and PC-3 flu (empty vector transfected) cells were originally a gift from Warren B. Heston (Cleveland Clinic Foundation). PC-3 is androgen insensitive and constituitively expresses TSPO. […] Intact male athymic nude mice were inoculated subcutaneously with 2×10^6 PC-3 PIP cells behind the right forearm and 2×10^6 PC-3 flu cells behind the left forearm and were allowed to grow for 14 days until they reached 1 cm in longest diameter. Mice bearing LNCaP xenografts were inoculated with 5×10^6 cells in Matrigel (1:1, vol:vol) (Becton Dickenson, Franklin Lakes, N.J.) and were allowed to grow for a year before they reached 1 cm in diameter. The mice were then used in imaging experiments as described below.
PC-3 PIP and -flu xenograft bearing mice. […] The mice were anesthetized with isoflurane gas (2% in oxygen) and imaged at 1 hour and 24 hours post-injection using the Pearl Impulse imager using the 680 absorption/710 emission channels (DPA-713-IRDye680LT). PIP/flu and LNCaP-bearing mice were imaged using the inventive probe DPA-713-IRDye800CW at 1 hour post-injection using a Perkin Elmer IVIS 200 instrument set to absorb at 790 nm and emit at 810 nm. Images were visualized and processed using the manufacturer's Living Image software.
as §1, with “Prostate tumors that have become androgen insensitive constituitively express TSPO, including the PC-3 cell line. Athymic” for “FIG. 7 depicts imaging of athymic”

SMILES: CCN(CC)C(=O)Cc1c(-c2ccc(OCCNC(=O)CCCCc3cccc(C(=C\C=C4/N(CCCS(=O)(=O)O)c5ccc6c(S(=O)(=O)O)cc(S(=O)(=O)O)cc6c5C4(C)C)/C=C/C4=[N+](CCCS(=O)(=O)[O-])c5ccc6c(S(=O)(=O)O)cc(S(=O)(=O)O)cc6c5C4(C)C)c3)cc2)nn2c(C)cc(C)nc12 [DPA-713-IRDye680LT, 3-(2-((1E,3Z,5Z)-3-(3-(5-(2-(4-(3-(2-(diethylamino)-2-oxoethyl)-5,7-dimethylpyrazolo[1,5-a]pyrimidin-2-yl)phenoxy)ethylamino)-5-oxopentyl)phenyl)-5-(1,1-dimethyl-6,8-disulfo-3-(3-sulfopropyl)-1Hbenzo[e]indol-2(3H)-ylidene)penta-1,3-dienyl)-1,1-dimethyl-6,8-disulfo-1H-benzo[e]indolium-3-yl)propane-1-sulfonate]
- Cell-specific localization of probe in xenograft sections [1]: selectively retained by CD68-expressing macrophages; also recorded: sequestered within CD68+ macrophages
- Blocking of tracer uptake by (R,S)-PK11195 ([2]; 40 nM tracer + 1 μM (R,S)-PK11195, 24 hours): no longer blocked
- Blocking of tracer uptake by (R,S)-PK11195 ([2]; 40 nM tracer + 1 μM unlabeled (R,S)-PK11195, 1 hour): widespread although incomplete blocking
- Blocking of tracer uptake by unlabeled DPA-713 ([2]; 40 nM tracer + 1 μM unlabeled DPA-713, 1 hour): partial but incomplete blocking
- Distribution of fluorescent signal, tracer only ([3]; 1 hour post-injection): only the macrophage enriched PC-3 PIP tumor is clearly visible
- Distribution of fluorescent signal, tracer only ([3]; 24 hours post-injection): distributed at the periphery of both tumors in the tracer-only mouse and is strongly retained by TSPO+ kidneys
- Tumor uptake with co-administered unlabeled DPA-713 ([3]; 8 nmol tracer + 20 mg/kg unlabeled DPA-713, 1 hour post-injection): Neither tumor takes up the fluorescent probe
- Tumor and kidney uptake with co-injected unlabeled DPA-713 ([3]; 8 nmol tracer + 20 mg/kg unlabeled DPA-713, 24 hours post-injection): neither tumor nor kidney uptake
- Clearance of unbound probe ([3]; 24 hours post-injection, intraperitoneal): cleared from the peritoneal space
